One experiment deals with COPD patients. The settings on record: vs placebo; population as given per drug; cited from earlier work.
Experiment [1] deals with patients with moderate to severe COPD. The experiment in a line: Clinical study of nebulised ensifentrine vs placebo in COPD: moderate/severe COPD exacerbations. The format is in vivo, human. Here is the method: (§1) A clinical study was conducted to determine the efficacy of ensifentrine in treating COPD compared with placebo. Ensifentrine was administered by nebuliser at a dose of 3 mg twice daily (BID) for 24 weeks. The study was a multi-centre, randomized, double-blind, parallel-group, placebo-controlled trial with around 800 patients and 5:3 randomization.
(§2) The study population included patients aged 40-80 years with moderate to severe COPD (FEV1 30%-70% p.n., FEV1/forced vital capacity [FVC] ratio <0.7, with mMRC≥2). The randomization stratified (a) the use of stable background maintenance LAMA or LABA therapy use (approx. 50%. yes or no) and (b) cigarette smoking (current or former). Inhaled corticosteroid (ICS) maintenance therapy was permitted in up to 20% of patients under certain provisions.
(§3) The primary endpoint of the study was change from baseline in average FEV1 area under the curve (AUC)0-12 h post-dose at week 12. Secondary endpoints of the study included: peak FEV1 over 4 hours post-dose at Week 12; morning trough FEV1 at Week 12; and other endpoints including moderate/severe COPD exacerbations frequency and time to first moderate or severe COPD exacerbation over 24 Weeks.
Exacerbations were defined as worsening of 2 or more major symptoms (dyspnea, sputum volume, and sputum purulence) or worsening of any 1 major symptom together with any 1 of the following minor symptoms: sore throat, colds, fever without other cause, and increased cough or wheeze for at least 2 consecutive days. COPD exacerbations were considered to be of moderate severity if treatment with systemic corticosteroids and/or antibiotics was required and were considered to be severe if hospitalization was required.
The investigational product and placebo were provided in 2.5 mL unit dose format in an ampule and administered via a nebuliser.

Experiment [2] shares this test system. The experiment in a line: Clinical study of nebulised ensifentrine vs placebo in COPD: lung function (FEV1). The class given is in vivo, human. The note with it: all subgroups of COPD patients in the study. As for the experimental part: as §1, §2, §3
Baseline FEV1 is the mean of the two measurements taken before study medication on the day of first dosing, i.e. ≤40 minutes and just prior to dosing, pre-dose on day 1. […]

With `CS(=O)(=O)Nc1ccc(C(=O)O[C@@H](Cc2c(Cl)c[n+]([O-])cc2Cl)c2ccc(OC(F)F)c(OCC3CC3)c2)cc1OCC1CC1` [Tanimilast], the “Rate Reduction (=1-Rate Ratio) of COPD exacerbations” value in the experiment on COPD patients is 13-28% all doses.
As to `COc1cc2c(cc1OC)-c1c/c(=N\c3c(C)cc(C)cc3C)n(CCNC(N)=O)c(=O)n1CC2` [Ensifentrine, N-(2-{(2E)-9,10-dimethoxy-4-oxo-2-[(2,4,6-trimethylphenyl)imino]-6,7-dihydro-2H-pyrimido[6,1-α]isoquinolin-3(4H)-yl}ethyl)urea], the “Reduction in relative risk of moderate or severe COPD exacerbation vs placebo” value in experiment [1] (3 mg BID by nebuliser, over 24 weeks, including 52% of patients on background bronchodilator medications) is “approximately 40%”. Further, the “Reduction in the frequency of COPD exacerbations compared with other treatments” value in experiment [1] (comparison with literature treatments of Table 4) is given as “greater reduction in the frequency of COPD exacerbations than other treatments”. In addition, the “Time to first exacerbation / frequency of COPD exacerbations (conclusion)” value in experiment [1] (over 24 weeks) is “particularly effective in increasing the time to first exacerbation”. Besides, in experiment [2], the “Improvement in lung function in subgroups” value is listed as “improvement in lung function with ensifentrine that was statistically significant”.

The record behind these values is patent publication US20240165054A1, “TREATMENT” (Verona Pharma PLC, priority 2022, published 2024).
